Test system: human B cells
Details: 500 μM vs. 0 μM hydrogen peroxide

DNA size histograms of treated vs. untreated cells (FIG. 8A) (triplicate samples): clear shift to smaller fragment sizes
Structure (SMILES): OO [hydrogen peroxide]
average size of the DNA and label incorporation density (FIG. 8B) (average molecule length and labels/100 kb): clear oxidative damage detection in the form of DSBs and SSBs

— patent US20140030705A1, “SYSTEMS AND METHODS FOR ASSESSING BIOMOLECULE CHARACTERISTICS” (BioNano Genomics, Inc., priority 2010, published 2014)
